Measurements reported in patent US9265253B2, “Use of macrocyclic picolinamides as fungicides” (DOW AGROSCIENCES LLC, priority 2013, dated 2016).

system: Alternaria solani; experiment: Tomato Early Blight (ALTESO) disease control; type: in vivo; conditions: Alternaria solani, topical, 24 h, 1 Day Protectant, read-out: Disease Control ALTESO 1 DP
Procedure: Technical grades of materials were dissolved in acetone, which were then mixed with nine volumes of water containing 110 ppm Triton X-100. The fungicide solutions were applied onto wheat seedlings using an automated booth sprayer to run-off. All sprayed plants were allowed to air dry prior to further handling. All fungicides were evaluated using the aforementioned method for their activity vs. all target diseases. Wheat leaf blotch and brown rust activity were also evaluated using track spray applications, in which case the fungicides were formulated as EC formulations, containing 0.1% Trycol 5941 in the spray solutions. Wheat plants (variety Yuma) were grown from seed in a greenhouse in 50% mineral soil/50% soil-less Metro mix until the first leaf was fully emerged, with 7-10 seedlings per pot. These plants were inoculated with an aqueous spore suspension of Septoria tritici either prior to or after fungicide treatments. After inoculation the plants were kept in 100% relative humidity (one day in a dark dew chamber followed by two to three days in a lighted dew chamber at 20° C.) to permit spores to germinate and infect the leaf. The plants were then transferred to a greenhouse set at 20° C. for disease to develop. When disease symptoms were fully expressed on the 1st leaves of untreated plants, infection levels were assessed on a scale of 0 to 100 percent disease severity. Percent disease control was calculated using the ratio of disease severity on treated plants relative to untreated plants. Tomato plants (variety Outdoor girl) were propagated in soil-less Metro mix, with each pot having one plant, and used when 12 to 14 days old. Test plants were inoculated with an aqueous spore suspension of Alternaria solani 24 hr after fungicide treatments. After inoculation the plants were kept in 100% relative humidity (one day in a dark dew chamber followed by two to three days in a lighted dew chamber at 20° C.) to permit spores to germinate and infect the leaf. The plants were then transferred to a growth room at 22° C. for disease to develop. Fungicide formulation, application and disease assessment on the sprayed leaves followed the procedures as described in the Example A.

Compound | pest or weed control at 100 ppm [%]
CC[C@H]1CCC[C@H](NC(=O)c2nccc(OC)c2OC(C)=O)C(=O)O[C@@H](C)[C@@H]1Oc1ccccc1 [Compound F81] | 0 to 80
COc1ccnc(C(=O)N[C@H]2CCC[C@H](Cc3ccc(F)cc3)[C@@H](OCC3CC3)[C@H](C)OC2=O)c1OCOC(C)=O [Compound F96] | 80 to 100
CCOCC(=O)OCOc1c(OC)ccnc1C(=O)N[C@H]1CCC[C@H](Cc2ccccc2)[C@@H](OCC(C)C)[C@H](C)OC1=O [Compound F172] | 80 to 100

system: Venturia inaequalis; experiment: Apple Scab (VENTIN) disease control; type: in vivo; conditions: Venturia inaequalis, topical, 24 h, 1 Day Protectant, read-out: Disease Control VENTIN 1 DP
Procedure: Technical grades of materials were dissolved in acetone, which were then mixed with nine volumes of water containing 110 ppm Triton X-100. The fungicide solutions were applied onto wheat seedlings using an automated booth sprayer to run-off. All sprayed plants were allowed to air dry prior to further handling. All fungicides were evaluated using the aforementioned method for their activity vs. all target diseases. Wheat leaf blotch and brown rust activity were also evaluated using track spray applications, in which case the fungicides were formulated as EC formulations, containing 0.1% Trycol 5941 in the spray solutions. Wheat plants (variety Yuma) were grown from seed in a greenhouse in 50% mineral soil/50% soil-less Metro mix until the first leaf was fully emerged, with 7-10 seedlings per pot. These plants were inoculated with an aqueous spore suspension of Septoria tritici either prior to or after fungicide treatments. After inoculation the plants were kept in 100% relative humidity (one day in a dark dew chamber followed by two to three days in a lighted dew chamber at 20° C.) to permit spores to germinate and infect the leaf. The plants were then transferred to a greenhouse set at 20° C. for disease to develop. When disease symptoms were fully expressed on the 1st leaves of untreated plants, infection levels were assessed on a scale of 0 to 100 percent disease severity. Percent disease control was calculated using the ratio of disease severity on treated plants relative to untreated plants. Apple seedlings (variety McIntosh) were grown in soil-less Metro mix, with one plant per pot. Seedlings with two expanding young leaves at the top (older leaves at bottom of the plants were trimmed) were used in the test. Plants were inoculated with a spore suspension of Venturia inaequalis 24 hr after fungicide treatment and kept in a 22° C. dew chamber with 100% RH for 48 hr, and then moved to a greenhouse set at 20° C. for disease to develop. Fungicide formulation, application and disease assessment on the sprayed leaves followed the procedures as described in the Example A.

Compound | pest or weed control at 100 ppm [%]
CC[C@H]1CCC[C@H](NC(=O)c2nccc(OC)c2OC(C)=O)C(=O)O[C@@H](C)[C@@H]1Oc1ccccc1 [Compound F81] | 0 to 80
COc1ccnc(C(=O)N[C@H]2CCC[C@H](Cc3ccc(F)cc3)[C@@H](OCC3CC3)[C@H](C)OC2=O)c1OCOC(C)=O [Compound F96] | 0 to 80
CCOCC(=O)OCOc1c(OC)ccnc1C(=O)N[C@H]1CCC[C@H](Cc2ccccc2)[C@@H](OCC(C)C)[C@H](C)OC1=O [Compound F172] | 0 to 80

system: Puccinia triticina; Synonym: Puccinia recondite f. Sp. Tritici; experiment: Wheat Brown Rust (PUCCRT) disease control; type: in vivo; conditions: 3 Day Curative, rate 121.5 g/H
Outline: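 Brown rust on first-leaf Yuma wheat: spore inoculation before or after spray application (acetone/Triton X-100 solution, or EC with Trycol in track spray), overnight 100% RH at 22 °C, disease developed at 24 °C. Severity scored 0–100% and converted to percent control against untreated.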

Compound | PUCCRT 3 DC disease control
COc1ccnc(C(=O)N[C@H]2CCC[C@H](Cc3ccc(F)cc3)[C@@H](OCC3CC3)[C@H](C)OC2=O)c1OCOC(C)=O [Compound F96] | B (More than 0-Less than 80)

same assay, conditions: Puccinia triticina, topical, 24 h, 1 Day Protectant, rate 100 ppm; read-out: PUCCRT 1 DP disease control

Compound | pest or weed control at 100 ppm [%]
CC[C@H]1CCC[C@H](NC(=O)c2nccc(OC)c2OC(C)=O)C(=O)O[C@@H](C)[C@@H]1Oc1ccccc1 [Compound F81] | 80 to 100
COc1ccnc(C(=O)N[C@H]2CCC[C@H](Cc3ccc(F)cc3)[C@@H](OCC3CC3)[C@H](C)OC2=O)c1OCOC(C)=O [Compound F96] | 80 to 100
CCOCC(=O)OCOc1c(OC)ccnc1C(=O)N[C@H]1CCC[C@H](Cc2ccccc2)[C@@H](OCC(C)C)[C@H](C)OC1=O [Compound F172] | 80 to 100

same assay, conditions: Puccinia triticina, topical, 24 h, 1 Day Protectant, rate 121.5 g/H; read-out: PUCCRT 1 DP disease control

Compound | pest or weed control at 121.5 g/ha [%]
CC[C@H]1CCC[C@H](NC(=O)c2nccc(OC)c2OC(C)=O)C(=O)O[C@@H](C)[C@@H]1Oc1ccccc1 [Compound F81] | 80 to 100
COc1ccnc(C(=O)N[C@H]2CCC[C@H](Cc3ccc(F)cc3)[C@@H](OCC3CC3)[C@H](C)OC2=O)c1OCOC(C)=O [Compound F96] | 80 to 100
CCOCC(=O)OCOc1c(OC)ccnc1C(=O)N[C@H]1CCC[C@H](Cc2ccccc2)[C@@H](OCC(C)C)[C@H](C)OC1=O [Compound F172] | 80 to 100

same assay, conditions: Puccinia triticina, topical, 72 h, 3 Day Curative, rate 100 ppm; read-out: PUCCRT 3 DC disease control

Compound | pest or weed control at 100 ppm [%]
CC[C@H]1CCC[C@H](NC(=O)c2nccc(OC)c2OC(C)=O)C(=O)O[C@@H](C)[C@@H]1Oc1ccccc1 [Compound F81] | 80 to 100
COc1ccnc(C(=O)N[C@H]2CCC[C@H](Cc3ccc(F)cc3)[C@@H](OCC3CC3)[C@H](C)OC2=O)c1OCOC(C)=O [Compound F96] | 80 to 100
CCOCC(=O)OCOc1c(OC)ccnc1C(=O)N[C@H]1CCC[C@H](Cc2ccccc2)[C@@H](OCC(C)C)[C@H](C)OC1=O [Compound F172] | 80 to 100

same assay, conditions: Puccinia triticina, topical, 72 h, 3 Day Curative, rate 121.5 g/H; read-out: PUCCRT 3 DC disease control

Compound | pest or weed control at 121.5 g/ha [%]
CC[C@H]1CCC[C@H](NC(=O)c2nccc(OC)c2OC(C)=O)C(=O)O[C@@H](C)[C@@H]1Oc1ccccc1 [Compound F81] | 80 to 100
CCOCC(=O)OCOc1c(OC)ccnc1C(=O)N[C@H]1CCC[C@H](Cc2ccccc2)[C@@H](OCC(C)C)[C@H](C)OC1=O [Compound F172] | 80 to 100

system: Mycosphaerella graminicola; Anamorph: Septoria tritici; experiment: Leaf Blotch of Wheat (SEPTTR) disease control; type: in vivo; conditions: Zymoseptoria tritici, 24 h, 1 Day Protectant, rate 100 ppm; read-out: SEPTTR 1 DP disease control
Outline: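 Protective or curative format: Septoria tritici inoculation either preceded or followed fungicide application to first-leaf Yuma wheat. Severity scored 0–100%; control expressed versus untreated.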

Compound | pest or weed control at 100 ppm [%]
CC[C@H]1CCC[C@H](NC(=O)c2nccc(OC)c2OC(C)=O)C(=O)O[C@@H](C)[C@@H]1Oc1ccccc1 [Compound F81] | 80 to 100
COc1ccnc(C(=O)N[C@H]2CCC[C@H](Cc3ccc(F)cc3)[C@@H](OCC3CC3)[C@H](C)OC2=O)c1OCOC(C)=O [Compound F96] | 80 to 100
CCOCC(=O)OCOc1c(OC)ccnc1C(=O)N[C@H]1CCC[C@H](Cc2ccccc2)[C@@H](OCC(C)C)[C@H](C)OC1=O [Compound F172] | 80 to 100

same assay, conditions: Zymoseptoria tritici, 24 h, 1 Day Protectant, rate 121.5 g/H; read-out: SEPTTR 1 DP disease control

Compound | pest or weed control at 121.5 g/ha [%]
CC[C@H]1CCC[C@H](NC(=O)c2nccc(OC)c2OC(C)=O)C(=O)O[C@@H](C)[C@@H]1Oc1ccccc1 [Compound F81] | 80 to 100
COc1ccnc(C(=O)N[C@H]2CCC[C@H](Cc3ccc(F)cc3)[C@@H](OCC3CC3)[C@H](C)OC2=O)c1OCOC(C)=O [Compound F96] | 80 to 100
CCOCC(=O)OCOc1c(OC)ccnc1C(=O)N[C@H]1CCC[C@H](Cc2ccccc2)[C@@H](OCC(C)C)[C@H](C)OC1=O [Compound F172] | 80 to 100

same assay, conditions: Zymoseptoria tritici, 72 h, 3 Day Curative, rate 100 ppm; read-out: SEPTTR 3 DC disease control

Compound | pest or weed control at 100 ppm [%]
CC[C@H]1CCC[C@H](NC(=O)c2nccc(OC)c2OC(C)=O)C(=O)O[C@@H](C)[C@@H]1Oc1ccccc1 [Compound F81] | 80 to 100
COc1ccnc(C(=O)N[C@H]2CCC[C@H](Cc3ccc(F)cc3)[C@@H](OCC3CC3)[C@H](C)OC2=O)c1OCOC(C)=O [Compound F96] | 80 to 100
CCOCC(=O)OCOc1c(OC)ccnc1C(=O)N[C@H]1CCC[C@H](Cc2ccccc2)[C@@H](OCC(C)C)[C@H](C)OC1=O [Compound F172] | 80 to 100

same assay, conditions: Zymoseptoria tritici, 72 h, 3 Day Curative, rate 121.5 g/H; read-out: SEPTTR 3 DC disease control

Compound | pest or weed control at 121.5 g/ha [%]
CC[C@H]1CCC[C@H](NC(=O)c2nccc(OC)c2OC(C)=O)C(=O)O[C@@H](C)[C@@H]1Oc1ccccc1 [Compound F81] | 80 to 100
COc1ccnc(C(=O)N[C@H]2CCC[C@H](Cc3ccc(F)cc3)[C@@H](OCC3CC3)[C@H](C)OC2=O)c1OCOC(C)=O [Compound F96] | 80 to 100
CCOCC(=O)OCOc1c(OC)ccnc1C(=O)N[C@H]1CCC[C@H](Cc2ccccc2)[C@@H](OCC(C)C)[C@H](C)OC1=O [Compound F172] | 80 to 100
